Source: patent publication US20170224613A1, “HYDROGEL COMPOSITIONS, METHODS FOR PREPARING THE SAME AND USES THEREOF” (CHONGQING MJ MEDICAL DEVICES CO., LTD., priority 2014, published 2017)

System: healthy volunteers
Assay: Testing in healthy volunteers: warming sensation, cooling sensation, skin irritation on forearm
Type: in vivo, human
Details: at 11 wt % based on the total weight of the hydrogel composition
Protocol: In a pilot study to evaluate the hydrogel composition formulations, the different hydrogel prototypes (with a gauze on which the respective hydrogel composition was disposed) of Examples 2 (called gel B in Table 3) and 6 (called gel C in Table 3) and Comparative Example 1 (called gel A in Table 3) were tested on 8 healthy volunteers (M:F=5:3, ages 27-64), respectively. […] Three clinical parameters were considered including the cooling sensation, the warming sensation and irritation/erythema on the applied skin area. In this pilot study, each participant has applied the topical hydrogels (120 mm×100 mm×5 mm; 70 g) on to their forearm (one gel per forearm at a time) and scored their subjective warming and cooling sensations at 5, 10, 20, and 30 min after hydrogel application according to Table 2. The skin irritation reaction was also examined and scored by a researcher according to Table 2.

Q: For COC(=O)c1ccccc1O [Methyl salicylate, methyl salicylate], which “irritation by methyl salicylate in hydrogel” value is on record?
A: showed irritation
